Measured values taken from patent US11583525B2, “Geranylgeranyltransferase I inhibitor for treatment of a PTEN defective cancer” (H. LEE MOFFITT CANCER CENTER AND RESEARCH INSTITUTE, INC., priority 2017, dated 2023).

How the values were obtained:
Type in all cases: cell-based, human
FBXL2 and IP3R3 = assay: FBXL2-IP3R3 co-immunoprecipitation after ATP stimulation; settings: ATP for 30 min; particularly upon proteasome inhibition
Experimental: FIGS. 8A, 8B, 8C, 8D, 8E, 8F, 8G, 8H, 8I, and 8J show Mapping of the FBXL2-binding domain in IP3R3, and evidence that the N-terminal suppressor domain inhibits the IP3R3-FBXL2 interaction. […] Binding of IP3R3 to FBXL2 is indicated with the symbol (+). […] Whole-cell lysates (WCL) were immunoprecipitated (IP) with anti-Flag resin and proteins were immunoblotted as indicated. This experiment was performed twice. […] Sixteen hours after transfection, cells were incubated with MG132 for 3 h before stimulation with ATP for 30 min Whole-cell lysates were immunoprecipitated (IP) with an anti-HA resin and proteins were immunoblotted as indicated. This experiment was performed twice. […] Cells were subsequently treated with or without ATP for 30 min Whole-cell lysates were immunoprecipitated (IP) with an anti-Flag resin and proteins were immunoblotted as indicated. […] P values were calculated by one-way ANOVA and multiple-comparisons test. Error bars indicate s.e.m. […] It has been shown that removal of the N-terminal suppressor domain (amino acids 1-226) increases the binding of IP3 to the IP3 binding core domain (amino acids 227-579), and IP3 binding evokes conformational changes that open the suppressor domain29-32. These conformational changes may allow FBXL2 to access the degron of IP3R3 (that is, the amino acid region required for binding to FBXL2). […]

IP3R3 [1] = assay: IP3R3 degradation in serum-starved and exponentially growing NHFs treated with ATP; settings: NHFs cultured in presence or absence of serum
IP3R3 [2] = assay: Serum-mediated degradation of IP3R3 in serum-starved, serum re-stimulated NHFs (immunoblotting); settings: NHFs serum-starved 72 h, re-stimulated with serum; 10 μM MG132, 10 μM Eer1
Experimental: 24 h post-transfection, cells were treated with MG132 for 3 h before harvesting for immunoprecipitation and immunoblotting as indicated. WCL, whole-cell lysate from untransfected cells. […] After harvesting, cells were lysed, and cell membranes (CM) were isolated and immunoprecipitated with either a normal mouse IgG or an anti-Flag antibody. Subsequently, immunoprecipitates were analysed by immunoblotting as indicated. The results of these experiments (n=2) indicate that FBXL2 is incorporated into a complete SCF ligase that binds its substrate(s) at cellular membranes. […] After harvesting, cells were lysed and cytoplasmic (CYTO) and cell membrane (CM) fractions were isolated and analysed by immunoblotting as indicated. Actin and calnexin are used as markers for cytoplasmic and cell membrane fractions, respectively. This experiment was performed twice. […] 24 h post-transfection, where indicated, cells were treated with MG132 for 3 h before harvesting for immunoprecipitation and immunoblotting. Ned. CUL1, neddylated CUL1. […] The experiment was performed in the presence or absence of MG132 as indicated. Whole-cell lysates were immunoblotted as indicated. The asterisk indicates a non-specific band. This experiment was performed twice. […] P values were calculated by unpaired t-test. Error bars indicate s.e.m. […] Error bars indicate s.e.m. The values represent the ratios between FBXL2 and GAPDH mRNAs. […] Cells were subsequently stimulated with medium containing serum and harvested at the indicated times for immunoblotting. […] Error bars indicate s.e.m. […] Cells were subsequently stimulated with medium containing serum and harvested at the indicated time points for immunoblotting. […] Error bars indicate s.e.m. […] Exon 2 and exon 3 refer to the human FBXL2 gene in NC_000003.12 (GRCh38.p7 (Gene Bank ID: 3129728)). […]
FIGS. 6A, 6B, 6C, 6D, 6E, 6F, 6G, and 6H that the degradation of IP3R3 is dependent on FBXL2 localization to cell membranes and on the segregase activity of p97. […] Samples were analysed by immunoblotting with the indicated antibodies. […]

NHFs = assay: H2O2-induced apoptosis in NHFs transfected with FBXL2 siRNA (automated nuclei count); settings: pre-treated for 30 min with cyclosporin A (1 μM), H2O2 16 h
Experimental: FIGS. 1A, 1B, 1C, 1D, 1E, 1F, 1G, and 1H show FBXL2-mediated degradation of IP3R3 controls Ca2+ flux and sensitivity to apoptosis. […] Left, two representative traces. Right, quantification of three independent experiments. P values were calculated by one-way ANOVA and multiple-comparisons test. Error bars indicate s.e.m. 1b, 1c, and 1d, Apoptosis evaluated after treatment with H2O2 using automated nuclei count analysis of twenty randomly chosen fields following a 16 h treatment (1b), immunoblot detection of cleaved PARP and cleaved caspase-3 following a 3 h treatment (1c), and automated analysis of cells with released cytochrome c (Cyt c) from 80 randomly chosen fields following a 3 h treatment (1d). […] P values were calculated by one-way ANOVA and multiple-comparisons test. […] Left, representative traces show concentrations of cytosolic Ca2+ measured with aequorin. Right, quantification of three independent experiments. P values were calculated by one-way ANOVA and multiple-comparisons test. […] Apoptosis shown in 1h was evaluated as in 1b, except that H2O2 treatment was for 5 h. Analysis of cytochrome c release shown in 1i was evaluated as in 1d. P values were calculated by unpaired t-test. […]
Detection of cell death in cell systems. […] The mean fluorescence intensities and standard deviations of […] cytochrome c were evaluated in comparison to corresponding controls. […]

## Nc1ncnc2c1ncn2[C@@H]1O[C@H](COP(=O)(O)OP(=O)(O)OP(=O)(O)O)[C@@H](O)[C@H]1O [ATP]
FBXL2 and IP3R3
  binding between FBXL2 and IP3R3: increased the binding between FBXL2 and IP3R3
IP3R3 [1]
  degradation of IP3R3: promoted the degradation of IP3R3 in cells cultured in the presence, but not in the absence, of serum

## CC1(C)C(N(O)C(=O)Nc2ccc(Cl)cc2)N(c2ccc(Cl)cc2)C(=O)N1CC(=O)N/N=C/C=C/c1ccc([N+](=O)[O-])o1 (centres unmarked) [Eer1, Eeyarestatin 1]
IP3R3 [2]
  IP3R3 levels / degradation after serum re-stimulation: blocked IP3R3 degradation

## CC(=O)N[C@@H](CSC(=O)[C@]1([C@@H](O)C(C)C)NC(=O)[C@H](C)[C@@H]1O)C(=O)O [lactacystin]
IP3R3 [2]
  IP3R3 levels / degradation after serum re-stimulation: much less

## cyclosporin-A
NHFs
  sensitization to H2O2 by FBXL2 silencing: abolished the sensitization to H2O2 by FBXL2 silencing
